Assays:
[1] = test system: Human primary foreskin keratinocytes; assay: UVB irradiation of keratinocytes measuring DNA damage (nuclear thymine dimer staining); type: cell-based; design: Inhibition of photoproduct generation (protective effect): concentration or dose not given beside the values; settings: for Positive cells after UVB radiation (anti-thymine dimer antibody positive cells) / Inhibition of photoproduct generation (protective effect): 200 mJ/cm2 UVB; for Positive cells after UVB radiation (anti-thymine dimer antibody positive cells): positive cells above threshold in three fields, irradiated control 53%; for Inhibition of photoproduct generation (protective effect): relative to irradiated control; for UVB Irradiated Keratinocytes score: normalized to best performer = 20 points
From the text: Test 5: UVB Irradiation of Keratinocytes Measuring DNA Damage
This test assessed DNA damage in cell culture experiments under pro-oxidative conditions (UVB irradiation of human keratinocytes) by measuring the positive cells for anti-thymine dimer antibodies. This experiment is thought to reflect a direct correlation to the in vivo occurring DNA cross linking damage following UVB exposure and the protection of such nuclear damage by antioxidants.
Human primary foreskin keratinocytes (second passage) were grown in 6-well plates containing cover slips to 60% confluence in serum free medium (KGM, Clonetics) containing 0.07 mM CaCl2. Six hours before UVB-radiation medium was removed and replaced by fresh growth medium with or without the antioxidative substances.
Keratinocyte cultures were irradiated with a single dose of 200 mJ/cm2 UVB, using FS-20/T-12 bulbs (emission range: 280-340 nm; 305 nm max.). Immediately prior to irradiation, the medium was replaced with 1 ml sterile PBS (pH 7.4, 37° C.), and after irradiation, PBS was replaced with fresh growth medium. UVB exposure was quantitated using a Goldilux Ultraviolet radiometer. Cells were maintained at 37° C. (5% CO2) for 1 hour until fixation with paraformaldehyde (PFA).
Cells were fixed with 4% PFA in PBS for 30 min at RT, washed with PBS and permeabilized by incubation with EtOH/PBS (90/10; v %/v %) for 30 min at ˜10° C. After fixation and permeabilization cells were washed twice with PBS containing 1% of bovine serum albumin (BSA). They were then incubated for 30 min with 10 μg/ml anti-thymine Dimer Ab (clone KTM53; Kamiya) at RT. After the incubation period cells were washed twice with PBS-BSA and incubated for 30 min with 20 μg/ml secondary FITC-conjugated anti-mouse IgG at RT. After the incubation with the secondary antibody, cells were washed twice with PBS-BSA and fixed again with 4% PFA for 15 min at RT. Slides were analyzed by confocal microscopy.
This experiment is thought to reflect the in-vivo occurring DNA damage following UVB exposure and the protection of such nuclear damage by antioxidants.

[2] = test system: human skin; assay: UVB irradiation of human skin measuring damage by formation of sunburn cells (sunburn cell assay); type: in vivo; settings: for Sun Burn Cell Assay score: normalized to best performer = 20 points; for reduction in SBCs: 0.5% w/w in ethanol/water, topical once a day for two weeks, 1.5 MED UVB
From the text: Test 1: UVB Irradiation of Human Skin Measuring Damage by Formation of Sunburn Cells (SBC)
Exposure to UV radiation can cause damage of epidermal cells, resulting in the formation of sunburn cells. Since sunburn cells can be counted, their formation provides a relatively sensitive and quantitative measure of the extent of UV radiation damage to the epidermis.
All applications were made to a 5×10 cm area site over the mid-back region once a day for two weeks. Each putative antioxidant was applied to five (n=5) different healthy adult volunteers between the ages of 18 and 60. All Antioxidants were dissolved in ethanol/water at 0.5% w/w concentrations. Additionally, one test site was left untreated and served as a control. Approximately ten minutes after the last application, test sites were irradiated to 1.5 MED (Minimal Erythema Dose) of UVB light, a shave biopsy taken and prepared histologically, and the number of sun burn cells (SBC) evaluated microscopically per High Power Field.
The light source used was a 150 watt xenon arc solar simulator equipped with a UV reflecting dichromic mirror and a 1 mm thick Schott WG-320 (BES Optics Inc., W. Warwick, R.I.) filter to produce simulation of the solar spectrum. A 1 mm thick UG5 filter was added to remove reflected heat and remaining visible radiation.
The MED for each subject was determined by exposing a 1 cm diameter circle to untreated areas to a series of exposures in 25% dose increments from the solar simulator. The MED was defined as the time of exposure required to produce a minimally perceptible erythema 20±4 hours after exposure. Biopsies: Approximately ten minutes after the last topical application of the putative antioxidant, a circular area measuring 1 cm in diameter was exposed to a single dose of 1.5 MED using the solar simulator. Approximately 20 hours later, a shave biopsy (˜4×4 mm) was obtained from each irradiated and untreated control sites. Following injections of a local anesthetic (lidocaine). The skin specimens were immediately fixed in 10% buffered formalin.
The fixed specimens were processed routinely, embedded in paraffin and then sectioned and stained with hematoxylin-eosin. The numbers of sun burn cells (SBC) were determined in at least 12 sections at 50 u intervals. A minimum of 70 high power fields (HPF) was counted from each biopsy and the average number of SBCs per HPF determined. All specimens were counted in a blinded manner.
FIG. 3 expresses the photoprotective benefits of the antioxidants tested based on the percent change over baseline (delta percent) for the number of SBC per HPF.

[3] = Global relative antioxidant activity: total oxidative stress protective capacity score (sum of five tests); settings: sum of five equally weighted tests, maximum 100
From the text: Each oxidant was scored in each test, the results were then totaled for each antioxidant for each of the tests on an equal weighted basis. The total score of a particular antioxidant is reflective of the overall oxidative stress protective capacity of the antioxidant.
The five tests, which were equally weighted at 20 points each, allowed for the maximum highest possible score of 100 points. Using this scale, the higher score indicates higher oxidative stress protective capacity of the antioxidant. Equal weight was given to an antioxidant's performance in each study because each study tested the antioxidant's ability to protect against a unique different set of oxidative stress parameters.
A total oxidative stress protective capacity score for each antioxidant was determined by adding the results of the five tests for each antioxidant. Each of the five tests was assigned equal weight. That is, each antioxidant could receive a maximum of 20 points in each test so that each test contributed equally to the total score for each antioxidant.

[4] = Microsome pro-oxidative system (NADPH/ADP/Fe3+) measuring secondary oxidation by-products (MDA equivalents, TBARS); type: biochemical, male Wistar rats; settings: 100 μmol antioxidant; normalized to best performer = 20 points
Protocol: Test 4: Microsome Pro-Oxidative System measuring Secondary Oxidation By-Products
In this test, an assessment of antioxidative ability to protect microsomal membrane stressed with NADPH/ADP/Fe^3+-oxidative system measuring secondary oxidative by-products (Malondialdehyde-MDA equivalents) was performed utilizing the Thiobarbituric Acid Reactive Substances (TBARS) method. […] Therefore the pro-oxidative NADPH/ADP/Fe^3+-microsome system was used as an in vitro model system more closely resembling natural cellular biological systems.
Livers were obtained from male Wistar rats weighing between 250 and 400 g. Tissue was homogenized in 50 mmol/L N-2-Hydroxyethylpiperazine-N-2-Ethanesulfonic Acid (HEPES), 250 mmol/L sucrose buffer, pH 7.4, containing 150 mmol/L Potassium Chloride (KCl) and 500 μmol/L EDTA using a kinematica polytron PT3000 (Brinkmann Instruments, Westbury, N.Y.) homogenizer. Microsomal vesicles were isolated by removal of the nuclear fraction at 8,000×g for 10 min at 4° C. and removal of the mitochondrial fraction at 18,000×g for 10 min at 4° C. using a Beckman L8-55 ultracentrifuge and a 50Ti-13 rotor. The microsomal fraction was sedimented at 105,000×g for 60 min at 4° C. The pellet was washed once in 50 mmol/L HEPES and 150 mmol/L KCl, pH7.4, and collected again at 105,000×g for 30 min. The resulting microsomal pellet was resuspended in HEPES/KCl, pH7.4, by careful sonication in ice and stored in portions (10 mg protein/ml) at −80° C. until use.
The microsomal preparations were incubated in the presence of the pro-oxidant system NADPH/ADP/Fe^3+, consisting of 0.20 mmol/L NADPH, 50 mmol/L ADP, and 0.25 mmol/L FeCl3 in HEPES/KCl buffer (150 mmol/L KCl, 50 mmol/L HEPES) with and without the putative antioxidant substances. Oxidation of 1-ml aliquots containing 1 mg of protein was started at 37° C. by the addition of NADPH and was stopped with EDTA (10 mmol/L) after the times indicated in the figure legends. Control incubations without the pro-oxidant system were performed at 37° C. in the presence of EDTA. All Antioxidants were dissolved in water or ethanol and added to the incubations at equivalent 100 μmol concentrations.
Microsomal preparations (500 μl) were mixed with 1 ml of thiobarbituric acid (0.67 g/100 ml, 0.05 mol/L Sodium Hydroxide-NaOH). After the addition of trichloroacetic acid (50% w/v), the samples were heated to 90° C. for 30 min. After cooling and extraction of the samples with 1 ml of butanol, the absorbance of the butanol phase was determined spectrophotometrically at 532 nm. For quantification, an external standard curve was prepared using 1,1,3,3-tetraethoxypropane, which yields MDA.

[5] = LDL pro-oxidative system (CuSO4) measuring primary oxidation by-products (lipid hydroperoxides); type: biochemical; settings: 100 μmol antioxidant; normalized to best performer = 20 points
From the text: Test 3: LDL Pro-Oxidative Systems Measuring Primary & By-Products
This test assessed the ability of the antioxidant to protect LDL stressed with Copper Sulfate (Cu—SO4) oxidative system. The CuSO4-LDL system was used to evaluate the protection of lipid bulks over time measuring the primary by-products of lipid peroxidation—the highly reactive and cytotoxic lipid hydroperoxides.
After isolation, LDLs were extensively dialyzed against a degassed and nitrogen-saturated Tris-Hydrochloric (HCl) buffer (5 mmol/L, pH7.4) containing 1 mmol/L EDTA. Before oxidation by CuSO4, EDTA was removed from LDL by dialysis against a Tris-HCl buffer (5 mmol/L, pH7.4) without added EDTA.
Lipid hydroperoxides were determined with the Cayman Lipid Peroxidation (LPO) Assay Kit (Cayman Chemical, Ann Arbor, Mich.) which measures the hydroperoxides directly utilizing the redox reactions with ferrous ions to produce ferric ions which can be detected using thiocyanate ion as the chromogen.

[6] = Radical scavenging capacity measured by photochemilluminescence (Photochem system); type: biochemical; settings: for Photochemilluminescence score: 10 nmol/L=20, 100 nmol/L=15, 1000 nmol/L=10, >1000 nmol/L=5; for Effective Concentration (to eliminate radical formation): lowest effective concentration, base 10 serial dilution
From the text: Test 2: Radical Scavenging Capacity Measured by Photochemilluminescence
This test assessed the general antioxidative capacity of substances in their ability to scavenge free radicals via the measurement of radicals generated (or lack thereof) through their reaction with luminol and subsequent light emission.
The individual antioxidant capacity of the putative antioxidant substances was estimated by the Photochem® system (Analytik Jena AG, Jena, Germany, and Analytik Jena USA, Inc., Texas). The system combines the generation of radicals through photochemical excitation with highly sensitive luminometric detection via the radical reaction with luminol to produce measurable light emission. Samples are diluted with pre-made buffers (standardized kits) and applied to the device. The relative antioxidative capacity is determined by comparison to a standardized blank (without antioxidants) and a standard provided with the kit. The ACL-kit (Integral Antioxidative Capacity of lipid-soluble substances) and the ACW-kit ((Integral Antioxidative Capacity of water-soluble substances) were used.
Antioxidant concentrations effective to eliminate radical formulation were established for each antioxidant.

| SMILES | Positive cells after UVB radiation (anti-thymine dimer antibody positive cells) [1] | Inhibition of photoproduct generation (protective effect) [1] | UVB Irradiated Keratinocytes score [1] | Sun Burn Cell Assay score [2] | Total Points (Total Score) [3] | Secondary Oxidative Products score [4] | Primary Oxidative Products score [5] | reduction in SBCs [2] | Photochemilluminescence score [6] | Effective Concentration (to eliminate radical formation) [6] | relative activity (efficacy) to the standard idebenone in sun burn cell assay ([2]; percentage reduction divided by that of idebenone) |
| --- | --- | --- | --- | --- | --- | --- | --- | --- | --- | --- | --- |
| c1coc(CNc2ncnc3[nH]cnc23)c1 [Kinetin, kinetin] | 34% | 36% | 17 points | 11 points | – | – | – | – | – | – | – |
| O=C1O[C@H]([C@@H](O)CO)C(O)=C1O [Ascorbic acid, 1-ascorbic acid] | 34% | 36% | 17 points | 0 points | – | – | – | – | – | – | – |
| COC1=C(OC)C(=O)C(CCCCCCCCCCO)=C(C)C1=O [Idebenone, 6-(10-hydroxydecyl)-2,3-dimethoxy-5-methyl-1,4-benzoquinone] | 29% | 45% | 20 points | 20 points | 95 points | 19 points | 16 points | 38% | 20 points | 10 nmol/L | – |
| Cc1c(C)c2c(c(C)c1O)CCC(C)(CCCC(C)CCCC(C)CCCC(C)C)O2 (racemic) [Tocopherol, dl-alpha tocopherol] | 35% | 34% | 17 points | 16 points | 80 points | 17 points | 10 points | 31% | 20 points | 10 nmol/L | 82% |
| COC1=C(OC)C(=O)C(C/C=C(\C)CC/C=C(\C)CC/C=C(\C)CC/C=C(\C)CC/C=C(\C)CC/C=C(\C)CC/C=C(\C)CC/C=C(\C)CC/C=C(\C)CCC=C(C)C)=C(C)C1=O [Ubiquinone, ubiquinone] | 51% | 4% | 17 points | 6 points | 55 points | 12 points | 5 points | – | 15 points | 100 nmol/L | – |
| O=C(O)CCCCC1CCSS1 (racemic) [lipoic acid, dl-alpha lipoic acid] | 53% | 0% | 7 points | 5 points | 41 points | 20 points | 4 points | – | 5 points | >1000 (not detectable) nmol/L | – |
